Experimental findings from ChEMBL document CHEMBL5223062, “Tumor pyruvate kinase M2 modulators: a comprehensive account of activators and inhibitors as anticancer agents” (RSC Med Chem, 2021) are described below.

Each structure is given as a SMILES string.

By IC50 is commonly meant the concentration needed to halve the response being measured. In general, AC50 refers to the concentration at which the activity in the assay is half-maximal. A higher AC50 goes with activity only at high concentration. Usually inhibition stands for the percentage by which the read-out fell short of the control.

The test system of one assay is HeLa. As to the kind of experiment: Antiproliferative activity against human HeLa cells assessed as cell growth inhibition. The format is functional, cell-based.
For another assay, the system named is HCT-116. Put plainly: Antiproliferative activity against human HCT-116 cells assessed as cell growth inhibition. The format is functional, cell-based.
Assay [1] concerns NCI-H1299. As to the kind of experiment: Antiproliferative activity against human NCI-H1299 cells assessed as cell growth inhibition. The format is functional, cell-based.
Assay [2] concerns the target T1, Pyruvate kinase PKM (Homo sapiens, UniProt P14618). As to the kind of experiment: Activation of PKM2 in human NCI-H1299 cells. The format is cell-based.
Target sequence in this assay (P14618 whole entry): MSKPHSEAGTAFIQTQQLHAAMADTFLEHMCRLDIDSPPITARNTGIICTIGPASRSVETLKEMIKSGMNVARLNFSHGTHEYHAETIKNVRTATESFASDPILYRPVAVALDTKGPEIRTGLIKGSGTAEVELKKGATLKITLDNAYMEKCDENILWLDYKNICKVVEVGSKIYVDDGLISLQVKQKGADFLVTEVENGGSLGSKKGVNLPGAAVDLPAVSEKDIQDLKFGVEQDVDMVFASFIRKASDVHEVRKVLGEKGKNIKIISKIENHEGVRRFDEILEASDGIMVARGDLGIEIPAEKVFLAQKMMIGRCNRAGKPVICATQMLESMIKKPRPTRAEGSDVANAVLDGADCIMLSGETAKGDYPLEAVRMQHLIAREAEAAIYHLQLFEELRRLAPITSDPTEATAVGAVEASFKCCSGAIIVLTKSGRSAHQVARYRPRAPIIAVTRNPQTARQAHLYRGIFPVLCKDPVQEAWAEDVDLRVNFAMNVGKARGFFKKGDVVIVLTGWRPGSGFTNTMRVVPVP
The target in assay [3] is T1, Pyruvate kinase PKM. Put plainly: Activation of PKM2 (unknown origin).
Target sequence in this assay (P14618 whole entry): as above
For assay [4], the target named is T1, Pyruvate kinase PKM. Put plainly: Inhibition of PKM1 (unknown origin) at 10 uM relative to control.
Target sequence in this assay (P14618 2-531 limits assumed): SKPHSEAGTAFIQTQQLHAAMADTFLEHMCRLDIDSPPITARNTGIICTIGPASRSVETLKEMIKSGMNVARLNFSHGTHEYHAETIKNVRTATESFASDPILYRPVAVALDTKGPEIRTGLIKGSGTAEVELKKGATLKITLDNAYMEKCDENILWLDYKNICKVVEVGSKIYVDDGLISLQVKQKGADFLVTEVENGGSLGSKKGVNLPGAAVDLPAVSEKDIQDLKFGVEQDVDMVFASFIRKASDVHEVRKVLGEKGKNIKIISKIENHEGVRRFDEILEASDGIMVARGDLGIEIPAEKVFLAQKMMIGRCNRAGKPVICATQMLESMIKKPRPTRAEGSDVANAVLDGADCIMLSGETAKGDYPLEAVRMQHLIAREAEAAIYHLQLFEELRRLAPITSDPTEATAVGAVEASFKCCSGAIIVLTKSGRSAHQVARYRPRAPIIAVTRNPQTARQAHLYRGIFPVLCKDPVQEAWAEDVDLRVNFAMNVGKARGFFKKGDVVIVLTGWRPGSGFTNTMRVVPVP
Assay [5] concerns the target T1, Pyruvate kinase PKM. As to the kind of experiment: Inhibition of PKM2 (unknown origin) at 10 uM relative to control.
Target sequence in this assay (P14618 2-531 limits assumed): as above
Assay [6] deals with NCI-H1299. As to the kind of experiment: Inhibition of glycolysis in human NCI-H1299 cells. It counts as functional.
The subject of another assay is HT-29. As to the kind of experiment: Antiproliferative activity against human HT-29 cells assessed as cell growth inhibition. It counts as functional, cell-based.
Another assay concerns DLD-1. As to the kind of experiment: Antiproliferative activity against human DLD-1 cells assessed as cell growth inhibition. The format is functional, cell-based.
Assay [7] addresses T1, Pyruvate kinase PKM. As to the kind of experiment: Inhibition of PKM2 (unknown origin).
Target sequence in this assay (P14618 whole entry): as the sequence (P14618 whole entry) above
Assay [8] deals with T1, Pyruvate kinase PKM. Put plainly: Binding affinity to PKM2 (unknown origin) assessed as Gibbs free energy.
Target sequence in this assay (P14618 2-531 limits assumed): as the sequence (P14618 2-531 limits assumed) above
A further assay concerns PC-3. Put plainly: Antiproliferative activity against human PC-3 cells assessed as cell growth inhibition. The format is functional, cell-based.

As to `CC1=C(CSC(=S)N2CCCCC2)C(=O)c2ccccc2C1=O`, the IC50 with HeLa, in the assay on HCT-116 and in the assay with NCI-H1299 [1] was 2.95 µM in each case.
Consider `Cc1cc2c(s1)c1cnn(Cc3ccccc3F)c(=O)c1n2C`, for which the AC50 on Pyruvate kinase PKM [2] came out at 0.06 µM.
Compound `O=C(c1cc(C(F)(F)F)n[nH]1)N(Cc1ccc(O)cc1F)CC1CCC1` gave an AC50 at Pyruvate kinase PKM [3] of 0.01 µM.
`Nc1cccc(S(=O)(=O)N2CCCN(S(=O)(=O)c3ccc4c(c3)OCCO4)CC2)c1` showed an AC50 at Pyruvate kinase PKM [3] of 0.03 µM.
For `Cc1ccc(C)n1-c1ccc(O)c(C(=O)O)c1`, the inhibition against Pyruvate kinase PKM [4] came to 34%; at Pyruvate kinase PKM [5], 81%. In the assay with NCI-H1299 [6], the “inhibition (INH)” value is recorded as 18.5%.
Regarding `O=P(O)(O)OC[C@H]1O[C@](O)(COP(=O)(O)O)[C@@H](O)[C@@H]1O` [FOSFRUCTOSE], half-maximal activity at Pyruvate kinase PKM [3] (AC50) was put at 7 µM.
Same read-out and setting: then `O=C1CCc2cc(S(=O)(=O)Nc3ccc(F)c(Cl)c3)c(F)cc2N1`, with 0.09 µM; and `O=C(O)/C=C/c1ccc(O)cc1` [COUMARIC ACID], with 22.2 µM; and `COc1ccc(-c2cc(=O)c3c(OC)c(OC)c(OC)c(OC)c3o2)cc1` [TANGERETIN], with 0.95 µM.
At Pyruvate kinase PKM [3], `C=C1C(=O)O[C@@H]2[C@H]3O[C@]3(C)CC/C=C(/C(=O)OCCOCCOC(=O)/C3=C/CC[C@@]4(C)O[C@@H]4[C@H]4OC(=O)C(=C)[C@@H]4CC3)CC[C@@H]12` displayed an AC50 of 0.015 µM.
For the compound `O=c1cc(-c2ccc(O)cc2)oc2cc(O)cc(O)c12` [APIGENIN], the IC50 in the assay with HCT-116 is 27.9 µM; in the assay on HT-29, 2 µM; in the assay on DLD-1, 89.5 µM.
Compound `C=C1C(=O)O[C@H]2C1CCC(C)=C1CC[C@@](C)(O)[C@@H]12` (stereo not given in full) came in with a half-maximal activity concentration (AC50) at Pyruvate kinase PKM [3] of 0.006 µM.
`CCCCCN1/C(=C\C=C\C2N(CCCC)c3cc(Cl)c(Cl)cc3N2CCCCC)N(CCCC)c2cc(Cl)c(Cl)cc21` (stereo not given): the inhibition worked out at 31% at Pyruvate kinase PKM [4] and 86% against Pyruvate kinase PKM [5].
At Pyruvate kinase PKM [3], `COc1cc(/C=C/C(=O)O)cc(OC)c1O` [SINAPINATE] had an AC50 of 26.2 µM.
Same read-out and setting: then `Cn1cc(C(=O)c2cccc(Cl)c2Cl)cc1C(=O)NCCNC(=O)c1cc(C(=O)c2cccc(Cl)c2Cl)cn1C`, with 0.01 µM.
Still for that read-out and setting: then `O=c1c(O)c(-c2cc(O)c(O)c(O)c2)oc2cc(O)cc(O)c12` [MYRICETIN], with 0.51 µM.
Turning to `O=C(O)CN1C(=O)/C(=C/c2ccc(OC(=O)c3ccccc3I)cc2)SC1=S`, the inhibition at Pyruvate kinase PKM [4] turned out to be 36%; on Pyruvate kinase PKM [5], 84%.
In the case of `CC(C)=CC[C@@H](O)C1=CC(=O)c2c(O)ccc(O)c2C1=O` [SHIKONIN], at Pyruvate kinase PKM [7], the half-inhibitory concentration (IC50) amounted to 1.42 µM. Further, the deltaG on Pyruvate kinase PKM [8] is -7.98 kcal/mol.
The matching figures for `CC(C)=CCC1=C(O)C(=O)c2ccccc2C1=O` [LAPACHOL]: 1.4 µM and -9.34 kcal/mol.
Consider `O=S(=O)(Nc1ccc(C2(O)CSC(=S)N2Cc2ccccc2)cc1)c1ccc2c(c1)OCCO2` (stereo not given), for which the IC50 in the assay on HeLa, with HCT-116 and in the assay on PC-3 was 0.46 µM throughout. Also, on Pyruvate kinase PKM [3], the half-maximal activity concentration (AC50) was 3.14 µM.
`COc1ccccc1N1CCN(C(=O)c2ccc(NS(=O)(=O)c3cccc4cccnc34)cc2)CC1` registered an AC50 at Pyruvate kinase PKM [3] of 0.01 µM.
Regarding `COc1cccc(Cn2ncc3c4sc([S+](C)[O-])cc4n(C)c3c2=O)c1` (stereo not given), on Pyruvate kinase PKM [2], the activity was half-maximal at 0.07 µM (AC50).
